Measurements from patent publication US20230111212A1, “MUSCLE TARGETING COMPLEXES AND USES THEREOF FOR TREATING DYSTROPHINOPATHIES” (Dyne Therapeutics, Inc., priority 2020, published 2023).

Experiments:
[1] = system: mdx mice (DMD mouse model); experiment: open field chamber experiment with hind limb fatigue challenge; type: in vivo; details: single i.v. dose 30 mg/kg, two weeks after injection
Description: (§1) Each experimental condition was replicated in five mdx mice. Five wild-type mice (healthy mice) were also dosed with vehicle control (saline).
Two weeks after injection, the functional activity of all treated mice was determined using an open field chamber experiment. The experiment involved three consecutive stages: (1) a 10-minute period during which each mouse was placed into an open field chamber; (2) a 10-minute period during which each mouse was subjected to a hind limb fatigue challenge; and (3) a 10-minute period during which each mouse was placed into an open field chamber. The total horizontal distances traveled during stages (1) and (3) were collected. The percent change in the total distance traveled between the first and second tests.

[2] = system: mdx mice (DMD mouse model); experiment: cage running wheel test; type: in vivo; details: single i.v. dose 30 mg/kg, four weeks after injection, 24-hour period
Description: as §1
Four weeks after injection, the activity of all treated mice was determined using a cage running wheel test. Each mouse was individually placed into cages with a running wheel for a 24-hour period. The 24-hour period involved five hours of light on followed by thirteen hours of darkness, and ending with six hours of light. The total distance traveled (in meters, m) by each mouse on the running wheel was continuously collected throughout the 24-hour period and subsequently binned into discrete one-hour increments.

creatine kinase = creatine kinase activity levels in mdx mice; type: in vivo, mouse; details: single i.v. dose 30 mg/kg, two and four weeks after injection
Description: as §1
All mice in this Example were further tested for creatine kinase activity levels two weeks and four weeks after injection.

With “MDX-ASO: naked exon 23 skipping PMO ASO; GGCCAAACCUCGGCUUACCUGAAAU (SEQ ID NO: 277) (PMO chemistry, chemistry not fully specified)” the “average decrease of total horizontal distance traveled during stage (3) relative to stage (1)” value [1] was “about 85%”, the “functional performance in open field chamber experiment” value [1] was “same compromised functional performance as those treated with vehicle” and the “distance traveled on running wheel during the dark period” value [2] was “considerably shorter distances”. The “creatine kinase activity levels” value (creatine kinase) was “no significant benefit”.
